Experimental data reported in US9452986B2, “6-heteroaryloxy- or 6-aryloxy-quinoline-2-carboxamides and method of use” (AbbVie Inc., priority 2014, dated 2016).
Read-outs that look alike come from different tables or passages of the source.

Key:
osteoarthritic rats = test: Osteoarthritic (OA) pain induced by sodium monoiodoacetate (MIA), hind limb grip force; assay type: in vivo, rat; details: rat, 20 days following MIA injection, hind limb grip force; for inhibition in vivo at 30 mg/kg / inhibition in vivo at 10 mg/kg: Rattus norvegicus, 480 h, read-out: OA MPE
Procedure: Osteoarthritic (OA) Pain Induced by Sodium Monoiodoacetate (MIA)
Pain behavior was assessed by measurement of hind limb grip force (GF) in adult osteoarthritic rats. Male Sprague Dawley rats, obtained from Charles River Laboratories, (Wilmington, Mass.), weighing 150-175 g, were injected in the unilateral knee join with a single intra-articular injection of sodium monoiodoacetate (MIA, 3 mg/rat). All rats were tested at 20 days following MIA injection. A behavioral measure of activity-induced pain was carried out. Measurements of the peak hind limb grip force were conducted by recording the maximum compressive force (CFmax), in grams of force, exerted on a hind limb strain gauge setup, in a commercially available grip force measurement system (Columbus Instruments, Columbus, Ohio).
During testing, each rat was gently restrained by grasping it around its rib cage and then allowed to grasp the wire mesh frame attached to the strain gauge. The experimenter then moved the animal in a rostral-to-caudal direction until the grip was broken. Each rat was sequentially tested twice at an approximately 2-3 minute interval to obtain a raw mean grip force (CFmax). This raw mean grip force data was in turn converted to a maximum hindlimb cumulative compressive force (CFmax), as the grams of force/kg of body weight, for each animal.
For evaluating the compound effects, the hind limb grip force was conducted 20 days following the intra-articular injection of MIA. A group of age-matched naïve (not injected with MIA) animals was added as a comparator to the drug-dosed groups. The vehicle control response for each group of MIA-treated animals was defined as the 0% response (0% effect), whereas the naïve control group was defined as the normal response and as 100% effect. The % effect for each dose group was expressed as % return of response to normalcy, compared to the naïve group. A percent maximal possible effect (% MPE) of testing compound was calculated according to the formula: (Treatment CFmax−Vehicle CFmax)/Vehicle CFmax]×100). Higher % effect numbers indicate increased relief from the pain in the model, with 100% indicating a return to the level of response seen in normal (non-osteoarthritic) animals. All experiments evaluating drug effects in this model were conducted in a randomized blinded fashion.
The animals were housed in Association for Assessment and Accreditation of Laboratory Animal Care (AAALAC) approved facilities at AbbVie Inc. in a temperature-regulated environment under a controlled 12-hour light-dark cycle, with lights on at 6:00 a.m. Food and water were available ad libitum at all times except during testing. All testing was done following procedures outlined in protocols approved by AbbVie Inc.'s Institutional Animal Care and Use Committee.

recombinant human Nav1.8 = recombinant human Nav1.8 (Homo sapiens (Human), UniProt Q9Y5Y9); test: FRET-based membrane potential assay, recombinant human sodium channel Nav1.8; assay type: cell-based
recombinant human Nav1.7 = recombinant human Nav1.7 (Homo sapiens (Human), UniProt Q15858); test: FRET-based membrane potential assay, recombinant human sodium channel Nav1.7; assay type: cell-based
Procedure, shortened: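 Channel activation used veratridine at its EC80, set by a dilution curve each experiment, together with Leiurus scorpion venom, added 3 min after compound. Membrane-potential ratio signals from FLIPR Tetra in HEPES-buffered HBSS were fitted to a four-parameter Hill equation for percent inhibition and IC50.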

[1] = HEK293 cells stably expressing recombinant human Nav1.8, veratridine + scorpion venom depolarization
[2] = HEK293 cells stably expressing recombinant human Nav1.7, veratridine + scorpion venom depolarization, read-out: FRET-Membrane Potential Nav1.7 IC50
[3] = read-out: FRET-Membrane Potential Nav1.7 IC50

recombinant human Nav1.8, sequence (Q9Y5Y9 whole entry): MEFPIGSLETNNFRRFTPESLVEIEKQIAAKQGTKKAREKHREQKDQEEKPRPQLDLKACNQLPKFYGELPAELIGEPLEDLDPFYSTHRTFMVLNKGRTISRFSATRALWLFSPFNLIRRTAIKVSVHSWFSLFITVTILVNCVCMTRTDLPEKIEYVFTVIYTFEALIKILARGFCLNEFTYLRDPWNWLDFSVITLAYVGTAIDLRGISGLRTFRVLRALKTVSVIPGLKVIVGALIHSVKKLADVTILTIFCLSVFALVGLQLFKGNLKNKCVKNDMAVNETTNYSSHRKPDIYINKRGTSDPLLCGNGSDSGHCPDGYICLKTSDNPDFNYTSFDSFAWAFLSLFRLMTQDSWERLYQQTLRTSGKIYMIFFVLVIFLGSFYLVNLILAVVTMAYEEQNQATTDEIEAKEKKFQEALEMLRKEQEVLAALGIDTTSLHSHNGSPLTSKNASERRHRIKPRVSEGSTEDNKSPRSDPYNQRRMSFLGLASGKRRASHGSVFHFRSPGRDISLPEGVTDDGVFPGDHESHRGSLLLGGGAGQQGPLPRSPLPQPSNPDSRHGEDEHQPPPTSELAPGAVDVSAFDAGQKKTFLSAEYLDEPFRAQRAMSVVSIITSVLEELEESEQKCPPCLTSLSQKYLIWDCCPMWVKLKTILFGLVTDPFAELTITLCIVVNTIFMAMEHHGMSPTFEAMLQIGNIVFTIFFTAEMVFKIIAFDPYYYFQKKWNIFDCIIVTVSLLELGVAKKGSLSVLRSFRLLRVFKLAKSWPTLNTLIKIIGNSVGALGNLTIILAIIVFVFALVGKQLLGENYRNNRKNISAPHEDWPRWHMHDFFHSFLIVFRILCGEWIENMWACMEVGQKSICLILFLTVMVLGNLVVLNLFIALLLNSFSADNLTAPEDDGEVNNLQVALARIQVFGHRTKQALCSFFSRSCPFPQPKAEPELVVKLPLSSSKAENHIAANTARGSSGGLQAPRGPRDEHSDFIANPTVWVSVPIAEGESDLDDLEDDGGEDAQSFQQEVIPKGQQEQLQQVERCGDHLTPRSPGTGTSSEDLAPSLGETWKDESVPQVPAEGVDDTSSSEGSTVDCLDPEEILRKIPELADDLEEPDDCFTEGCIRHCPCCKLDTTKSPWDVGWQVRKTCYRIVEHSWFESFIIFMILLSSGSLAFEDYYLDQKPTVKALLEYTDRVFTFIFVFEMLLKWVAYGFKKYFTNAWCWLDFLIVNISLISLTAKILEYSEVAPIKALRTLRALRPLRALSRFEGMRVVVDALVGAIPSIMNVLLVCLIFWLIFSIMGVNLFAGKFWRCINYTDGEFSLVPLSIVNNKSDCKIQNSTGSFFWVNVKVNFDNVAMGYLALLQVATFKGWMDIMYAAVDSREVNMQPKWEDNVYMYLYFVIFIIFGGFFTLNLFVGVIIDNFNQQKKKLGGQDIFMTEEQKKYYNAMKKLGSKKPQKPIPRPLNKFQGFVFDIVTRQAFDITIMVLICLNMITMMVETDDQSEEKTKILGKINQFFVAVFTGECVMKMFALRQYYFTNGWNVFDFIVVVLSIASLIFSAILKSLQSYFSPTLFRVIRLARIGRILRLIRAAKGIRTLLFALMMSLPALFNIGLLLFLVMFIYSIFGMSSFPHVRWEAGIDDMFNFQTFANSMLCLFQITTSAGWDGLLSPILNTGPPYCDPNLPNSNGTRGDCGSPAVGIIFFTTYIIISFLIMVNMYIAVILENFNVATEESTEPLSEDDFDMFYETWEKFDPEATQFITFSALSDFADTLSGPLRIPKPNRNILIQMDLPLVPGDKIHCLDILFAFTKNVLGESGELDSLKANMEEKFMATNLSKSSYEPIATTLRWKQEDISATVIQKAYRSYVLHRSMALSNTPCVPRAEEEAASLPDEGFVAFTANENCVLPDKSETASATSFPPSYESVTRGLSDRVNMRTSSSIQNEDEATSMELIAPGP
recombinant human Nav1.7, sequence (Q15858 whole entry): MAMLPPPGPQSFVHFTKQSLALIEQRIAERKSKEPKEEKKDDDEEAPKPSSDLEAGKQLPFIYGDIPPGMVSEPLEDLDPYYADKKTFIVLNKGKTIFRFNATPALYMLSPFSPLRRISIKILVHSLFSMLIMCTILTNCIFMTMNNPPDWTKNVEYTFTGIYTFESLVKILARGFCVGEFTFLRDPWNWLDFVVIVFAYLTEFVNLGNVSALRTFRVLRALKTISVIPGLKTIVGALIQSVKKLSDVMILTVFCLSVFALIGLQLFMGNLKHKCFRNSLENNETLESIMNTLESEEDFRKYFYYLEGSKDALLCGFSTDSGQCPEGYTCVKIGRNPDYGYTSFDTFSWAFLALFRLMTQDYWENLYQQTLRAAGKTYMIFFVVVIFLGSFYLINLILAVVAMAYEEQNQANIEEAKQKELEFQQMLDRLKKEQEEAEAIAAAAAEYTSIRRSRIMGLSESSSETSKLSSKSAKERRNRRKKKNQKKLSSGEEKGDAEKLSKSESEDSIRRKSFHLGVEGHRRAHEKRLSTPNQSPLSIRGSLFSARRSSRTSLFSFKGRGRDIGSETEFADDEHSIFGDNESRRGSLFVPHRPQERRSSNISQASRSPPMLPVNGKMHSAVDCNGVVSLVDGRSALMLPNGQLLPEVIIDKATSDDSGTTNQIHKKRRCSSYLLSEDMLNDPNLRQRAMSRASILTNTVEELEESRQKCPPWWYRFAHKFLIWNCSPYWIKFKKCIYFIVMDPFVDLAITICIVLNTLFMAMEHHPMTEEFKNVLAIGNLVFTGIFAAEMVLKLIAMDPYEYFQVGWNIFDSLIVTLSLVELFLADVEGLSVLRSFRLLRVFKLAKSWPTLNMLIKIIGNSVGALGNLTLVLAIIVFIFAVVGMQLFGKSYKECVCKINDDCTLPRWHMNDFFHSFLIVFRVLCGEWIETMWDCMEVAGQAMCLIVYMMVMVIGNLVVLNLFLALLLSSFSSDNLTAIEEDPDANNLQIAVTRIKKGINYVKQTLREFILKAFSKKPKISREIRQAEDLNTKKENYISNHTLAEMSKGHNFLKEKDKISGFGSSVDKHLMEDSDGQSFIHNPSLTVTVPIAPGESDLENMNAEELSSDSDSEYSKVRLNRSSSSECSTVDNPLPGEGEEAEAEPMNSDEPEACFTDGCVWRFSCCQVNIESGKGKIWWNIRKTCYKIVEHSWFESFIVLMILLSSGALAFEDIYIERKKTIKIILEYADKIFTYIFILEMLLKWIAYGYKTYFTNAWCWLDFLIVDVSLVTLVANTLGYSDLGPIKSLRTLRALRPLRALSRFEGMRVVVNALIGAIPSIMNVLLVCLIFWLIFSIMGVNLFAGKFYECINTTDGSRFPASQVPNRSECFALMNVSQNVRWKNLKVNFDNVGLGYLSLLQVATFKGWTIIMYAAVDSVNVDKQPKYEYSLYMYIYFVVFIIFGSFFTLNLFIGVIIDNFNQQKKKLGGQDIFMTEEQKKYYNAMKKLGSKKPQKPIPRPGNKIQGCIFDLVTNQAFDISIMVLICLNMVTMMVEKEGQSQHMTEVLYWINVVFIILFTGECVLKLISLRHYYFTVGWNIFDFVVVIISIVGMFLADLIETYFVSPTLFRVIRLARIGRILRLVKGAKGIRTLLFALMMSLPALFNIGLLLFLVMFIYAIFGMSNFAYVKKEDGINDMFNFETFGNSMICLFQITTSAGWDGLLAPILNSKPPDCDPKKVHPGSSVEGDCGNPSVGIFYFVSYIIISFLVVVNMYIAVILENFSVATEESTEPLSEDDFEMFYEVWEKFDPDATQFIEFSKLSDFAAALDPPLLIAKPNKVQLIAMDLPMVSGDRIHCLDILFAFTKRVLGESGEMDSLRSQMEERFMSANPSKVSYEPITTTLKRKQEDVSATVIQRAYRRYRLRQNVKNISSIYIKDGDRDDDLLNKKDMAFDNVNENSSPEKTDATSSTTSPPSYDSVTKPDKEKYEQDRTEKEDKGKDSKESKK

## O=C(c1ccc2cc(Oc3ccc(OC(F)F)cn3)ccc2n1)N1CCNCC1 [Example 57, (6-{[5-(difluoromethoxy)pyridin-2-yl]oxy}quinolin-2-yl)(piperazin-1-yl)methanone]
Osteoarthritic rats; OA dose 30 mg/kg
  inhibition in vivo at 30 mg/kg: 53%
Recombinant human Nav1.8; [1]
  IC50: 870 nM
Recombinant human Nav1.7; [2]
  IC50: 3190 nM

## COC[C@H]1CN(C(=O)c2ccc3cc(Oc4ccc(C(F)F)cn4)ccc3n2)CCN1 [Example 71, (6-{[5-(difluoromethyl)pyridin-2-yl]oxy}quinolin-2-yl) [(3R)-3-(methoxymethyl)piperazin-1-yl]methanone]
Osteoarthritic rats; OA dose 10 mg/kg
  inhibition in vivo at 10 mg/kg: 33%
Recombinant human Nav1.8; [1]
  IC50: 1640 nM
Recombinant human Nav1.7; [2]
  IC50: 1810 nM

## O=C(c1ccc2cc(Oc3ccc(C(F)(F)F)cn3)ccc2n1)N1CC(O)C1 [Example 18, (3-hydroxyazetidin-1-yl)(6-{[5-(trifluoromethyl)pyridin-2-yl]oxy}quinolin-2-yl)methanone]
Osteoarthritic rats; OA dose 10 mg/kg
  inhibition in vivo at 10 mg/kg: 23%
Recombinant human Nav1.8
  IC50: 5340 nM
Recombinant human Nav1.7; [2]
  IC50: 2200 nM

## O=C(c1ccc2cc(Oc3ccc(C(F)(F)F)cn3)ccc2n1)N1CCNCC1C(F)F (single isomer, unassigned) [Example 72, [(2S*)-2-(difluoromethyl)piperazin-1-yl](6-{[5-(trifluoromethyl)pyridin-2-yl]oxy}quinolin-2-yl)methanone]
Osteoarthritic rats; OA dose 30 mg/kg
  inhibition in vivo at 30 mg/kg: 11%
Recombinant human Nav1.8; [1]
  IC50: 3840 nM
Recombinant human Nav1.7; FRET-Membrane Potential Nav1.7 IC50
  IC50: 2730 nM

## CCN1CC(NC(=O)c2ccc3cc(Oc4ccc(C(F)(F)F)cn4)ccc3n2)CC1=O (stereo not shown) [Example 45, N-(1-ethyl-5-oxopyrrolidin-3-yl)-6-{[5-(trifluoromethyl)pyridin-2-yl]oxy}quinoline-2-carboxamide]
Osteoarthritic rats; OA dose 30 mg/kg
  inhibition in vivo at 30 mg/kg: 17%
Recombinant human Nav1.8; [1]
  IC50: 468 nM
Recombinant human Nav1.7; [2]
  IC50: 325 nM

## C[C@@H]1CN(C(=O)c2ccc3cc(Oc4ccc(C(F)F)cn4)ccc3n2)CCN1 [Example 68, (6-{[5-(difluoromethyl)pyridin-2-yl]oxy}quinolin-2-yl) [(3R)-3-methylpiperazin-1-yl]methanone]
Osteoarthritic rats; OA dose 10 mg/kg
  inhibition in vivo at 10 mg/kg: 52%
Recombinant human Nav1.8; [1]
  IC50: 1890 nM
Recombinant human Nav1.7; [2]
  IC50: 1210 nM

## COC[C@@H]1CN(C(=O)c2ccc3cc(Oc4ccc(C(F)F)cn4)ccc3n2)CCN1 [Example 69, (6-{[5-(difluoromethyl)pyridin-2-yl]oxy}quinolin-2-yl)[(3S)-3-(methoxymethyl)piperazin-1-yl]methanone]
Osteoarthritic rats; OA dose 10 mg/kg
  inhibition in vivo at 10 mg/kg: 2%
Recombinant human Nav1.8; [1]
  IC50: 2320 nM
Recombinant human Nav1.7; [2]
  IC50: 895 nM

## N[C@@H]1[C@H]2CN(C(=O)c3ccc4cc(Oc5ccc(C(F)(F)F)cn5)ccc4n3)C[C@@H]12 [Example 36, meso-[(1R,5S,6s)-6-amino-3-azabicyclo[3.1.0]hex-3-yl](6-{[5-(trifluoromethyl)pyridin-2-yl]oxy}quinolin-2-yl)methanone]
Osteoarthritic rats; OA dose 10 mg/kg
  OA MPE: 55%
Recombinant human Nav1.8; [1]
  IC50: 1420 nM
Recombinant human Nav1.7; [2]
  IC50: 727 nM

## NC1CN(C(=O)c2ccc3cc(Oc4ccc(C(F)(F)F)nc4)ccc3n2)C1 [Example 66, (3-amino azetidin-1-yl)(6-{[6-(trifluoromethyl)pyridin-3-yl]oxy}quinolin-2-yl)methanone]
Osteoarthritic rats; OA dose 30 mg/kg
  inhibition in vivo at 30 mg/kg: 52%
Recombinant human Nav1.8
  IC50: 1180 nM
Recombinant human Nav1.7; [2]
  IC50: 883 nM

## O=C(NCC(=O)N1CCCC1)c1ccc2cc(Oc3ccc(C(F)(F)F)cn3)ccc2n1 [Example 44, N-[2-oxo-2-(pyrrolidin-1-yl)ethyl]-6-{[5-(trifluoromethyl)pyridin-2-yl]oxy}quinoline-2-carboxamide]
Osteoarthritic rats; OA dose 10 mg/kg
  inhibition in vivo at 10 mg/kg: 42%
Recombinant human Nav1.8
  IC50: 937 nM

## N[C@@H]1[C@H]2CN(C(=O)c3ccc4cc(Oc5ccc(C(F)F)cn5)ccc4n3)C[C@@H]12 [Example 49, meso-[(1R,5S,6s)-6-amino-3-azabicyclo[3.1.0]hex-3-yl](6-{[5-(difluoromethyl)pyridin-2-yl]oxy}quinolin-2-yl)methanone]
Osteoarthritic rats; OA dose 30 mg/kg
  OA MPE: 58%
Recombinant human Nav1.8; [1]
  IC50: 702 nM
Recombinant human Nav1.7; [2]
  IC50: 2270 nM

## CS(=O)(=O)CCCNC(=O)c1ccc2cc(Oc3ccc(C(F)(F)F)cn3)ccc2n1 [Example 65, N-[3-(methylsulfonyl)propyl]-6-{[5-(trifluoromethyl)pyridin-2-yl]oxy}quinoline-2-carboxamide]
Osteoarthritic rats; OA dose 30 mg/kg
  inhibition in vivo at 30 mg/kg: 63%
Recombinant human Nav1.8; [1]
  IC50: 4230 nM
Recombinant human Nav1.7; [3]
  IC50: 2250 nM

## O=C(NC1CCC(F)(F)CC1)c1ccc2cc(Oc3ccc(C(F)(F)F)cn3)ccc2n1 [Example 23, N-(4,4-difluorocyclohexyl)-6-{[5-(trifluoromethyl)pyridin-2-yl]oxy}quinoline-2-carboxamide]
Osteoarthritic rats; OA dose 30 mg/kg
  inhibition in vivo at 30 mg/kg: 83%
Recombinant human Nav1.8; [1]
  IC50: > 20000 nM
Recombinant human Nav1.7; [2]
  IC50: 1450 nM

## CN1CC(NC(=O)c2ccc3cc(Oc4ccc(C(F)(F)F)cn4)ccc3n2)CC1=O (single isomer, unassigned) [Example 73, N-[(3R*)-1-methyl-5-oxopyrrolidin-3-yl]-6-{[5-(trifluoromethyl)pyridin-2-yl]oxy}quinoline-2-carboxamide]
Osteoarthritic rats; OA dose 30 mg/kg
  inhibition in vivo at 30 mg/kg: 66%
Recombinant human Nav1.8; [1]
  IC50: 1700 nM
Recombinant human Nav1.7; [2]
  IC50: 1440 nM

## O=C(c1ccc2cc(Oc3ccc(C(F)(F)F)cn3)ccc2n1)N1CCNCC1C(F)F (stereo not shown) [Example 25, [2-(difluoromethyl)piperazin-1-yl](6-{[5-(trifluoromethyl)pyridin-2-yl]oxy}quinolin-2-yl)methanone]
Osteoarthritic rats; OA dose 30 mg/kg
  inhibition in vivo at 30 mg/kg: 102%
Recombinant human Nav1.8; [1]
  IC50: 3830 nM
Recombinant human Nav1.7; [3]
  IC50: 1750 nM

## COC[C@H]1CN(C(=O)c2ccc3cc(Oc4ccc(C(F)(F)F)nc4)ccc3n2)CCN1 [Example 63, [(3R)-3-(methoxymethyl)piperazin-1-yl](6-{[6-(trifluoromethyl)pyridin-3-yl]oxy}quinolin-2-yl)methanone]
Osteoarthritic rats; OA dose 10 mg/kg
  inhibition in vivo at 10 mg/kg: 15%
Recombinant human Nav1.8
  IC50: 1160 nM
Recombinant human Nav1.7; [2]
  IC50: 976 nM

## O=C(c1ccc2cc(Oc3ccc(C(F)(F)F)nc3)ccc2n1)N1CCNCC1 [Example 19, piperazin-1-yl(6-{[6-(trifluoromethyl)pyridin-3-yl]oxy}quinolin-2-yl)methanone]
Osteoarthritic rats; OA dose 30 mg/kg
  inhibition in vivo at 30 mg/kg: 64%
Recombinant human Nav1.8; [1]
  IC50: 3960 nM
Recombinant human Nav1.7; [2]
  IC50: 1260 nM

## CCN1CCC(N(CC)C(=O)c2ccc3cc(Oc4ccc(C(F)(F)F)cn4)ccc3n2)CC1=O (stereo not shown) [Example 61, N-ethyl-N-(1-ethyl-2-oxopiperidin-4-yl)-6-{[5-(trifluoromethyl)pyridin-2-yl]oxy}quinoline-2-carboxamide]
Osteoarthritic rats; OA dose 10 mg/kg
  inhibition in vivo at 10 mg/kg: 61%
Recombinant human Nav1.8; [1]
  IC50: 1140 nM
Recombinant human Nav1.7; [2]
  IC50: 556 nM

## O=C(c1ccc2cc(Oc3ccc(C(F)(F)F)cn3)ccc2n1)N1CCN2CC(F)(F)C[C@H]2C1 [Example 53, [(8aS)-7,7-difluorohexahydropyrrolo[1,2-a]pyrazin-2(1H)-yl](6-{[5-(trifluoromethyl)pyridin-2-yl]oxy}quinolin-2-yl)methanone]
Osteoarthritic rats; OA dose 30 mg/kg
  inhibition in vivo at 30 mg/kg: 70%
Recombinant human Nav1.8; [1]
  IC50: 11000 nM
Recombinant human Nav1.7; [2]
  IC50: 3260 nM

## O=C(c1ccc2cc(Oc3ccc(C(F)(F)F)cn3)ccc2n1)N1CCNC[C@@H]1C(F)F [Example 603, [(2R)-2-(difluoromethyl)piperazin-1-yl](6-{[5-(trifluoromethyl)pyridin-2-yl]oxy}quinolin-2-yl)methanone]
Recombinant human Nav1.8; [1]
  IC50: 3670 nM
Recombinant human Nav1.7; [3]
  IC50: 1950 nM

## CN1CCC(N(C)C(=O)c2ccc3cc(Oc4ccc(C(F)(F)F)cn4)ccc3n2)CC1=O (stereo not shown) [Example 529, N-methyl-N-(1-methyl-2-oxopiperidin-4-yl)-6-{[5-(trifluoromethyl)pyridin-2-yl]oxy}quinoline-2-carboxamide]
Recombinant human Nav1.8; [1]
  IC50: > 20000 nM
Recombinant human Nav1.7; [3]
  IC50: 10300 nM

## CN(CC(F)F)C(=O)c1ccc2cc(Oc3ccc(C(F)(F)F)cn3)ccc2n1 [Example 622, N-(2,2-difluoroethyl)-N-methyl-6-{[5-(trifluoromethyl)pyridin-2-yl]oxy}quinoline-2-carboxamide]
Recombinant human Nav1.8; [1]
  IC50: 2280 nM
Recombinant human Nav1.7; [3]
  IC50: 5400 nM

## O=C(c1ccc2cc(Oc3ccc(C(F)(F)F)cn3)ccc2n1)N1CCNCC(F)(F)C1 [Example 417, (6,6-difluoro-1,4-diazepan-1-yl)(6-{[5-(trifluoromethyl)pyridin-2-yl]oxy}quinolin-2-yl)methanone]
Recombinant human Nav1.8; [1]
  IC50: 2750 nM
Recombinant human Nav1.7; [3]
  IC50: 11500 nM
